Test results as given in patent publication US11690816B2, “Unit doses for immediate release of GHB or of one of the therapeutically acceptable salts thereof, administered orally, and the use thereof to maintain alcohol abstinence” (DEBREGEAS ET ASSOCIES PHARMA, priority 2016, dated 2023).

Key:
[1] = patients with moderate or severe liver disease, same administered dose; cited from earlier work
[2] = tested on: alcohol-dependent patients; test: phase IIb/III clinical trial, maintaining of alcohol abstinence (PDA, TAC, HDD); type: in vivo, human
Method: The following doses were examined: • 0.75 g sodium oxybate three times daily—i.e. 2.25 g per day (99 patients) • 1.25 g sodium oxybate three times daily—i.e. 3.75 g per day (99 patients) • 1.75 g sodium oxybate three times daily—i.e. 5.25 g per day (99 patients) • 2.25 g sodium oxybate three times daily—i.e. 6.75 g per day (100 patients) • Placebo group (99 patients)
The unit doses, packaged in sachets, were administered via oral route in solid form, more particularly in the form of granules.
Efficacy was measured via percentage days of abstinence (PDA), reduced daily intake of alcohol (TAC) and the number of heavy drinking days (HDD). It was sought to analyse the correlation between efficacy of treatment and dose in mg/kg/d. In this respect the conversion to mg/kg/d was made using the following formula: unit dose in g of sodium oxybate×3/patient weight.
In the remainder of the present description, reference is made to two categories of alcoholic patients: • patients with mild to moderate alcohol dependence; • patients with severe to very severe alcohol dependence.

[3] = AUC and CMax values dependent on the doses used; details: human, in vivo, oral
Source text: The applicant has found the following AUC and CMax values, which are dependent on the doses used, for doses of 0.37 g, 0.75 g, 1.25 g and 1.75 g: […]

For `O=C(O)CCCO` [gamma-hydroxybutyric acid], which “increase of the main pharmacokinetic parameters compared with patients not suffering from liver disease” value [1] is on record?
Its value is “over 120%”.

Which “efficacy as share of the efficacy of the optimal dose” value ([2]; mild or moderate alcohol dependence, doses higher than 1.25 g) does the source give for `O=C(O)CCCO` [sodium oxybate] here?
The value was “about 20%”.

And the “unit dose of optimum efficacy (statistical models)” value ([2]; mildly or moderately alcohol-dependent patients without liver disease, three times daily)?
The value was 0.75 g.

And the side effects ([2]; severe or very severe alcohol dependence without liver disease, above 1.75 g three times daily)?
The side effects was “side effects become more numerous and frequent, in particular a sedative effect with nausea and marked fatigue”.

And the “optimum unit dose (polynomial regression models)” value ([2]; severe or very severe alcohol dependence, without liver disease, three times daily)?
The value was “about 1.5 g”.

And the “efficacy lower than that of the optimal dose” value ([2]; severe or very severe alcohol dependence, doses lower than 1.25 g or higher than 1.75 g)?
The value was “up to 80%”.

What about the AUC(0-t) ([3]; 0.37 g dose) of the same compound?
The AUC(0-t) was 14800 ng·h/mL.

What about the Cmax ([3]; 0.37 g dose) of the same compound?
Its Cmax is 11500 ng/mL.

And the AUC(0-t) ([3]; 0.75 g dose)?
Its AUC(0-t) is 30000 ng·h/mL.

And the Cmax ([3]; 0.75 g dose)?
The Cmax was 23000 ng/mL.

And the AUC(0-t) ([3]; 1.25 g dose)?
The AUC(0-t) was 50000 ng·h/mL.

What about the Cmax ([3]; 1.25 g dose) of the same compound?
Its Cmax is 39000 ng/mL.

What about the AUC(0-t) ([3]; 1.75 g dose) of the same compound?
The AUC(0-t) was 70000 ng·h/mL.

And the Cmax ([3]; 1.75 g dose)?
Its Cmax is 54500 ng/mL.
